Results: ChEMBL document CHEMBL1201862, “PubChem BioAssay data set” (2004)
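48-hour exposure; five concentrations; linearly interpolated endpoints. At the GI50, growth is halved.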 Activity calls are given as the source filed them. Cut-off read from the data, not from the text of the source: active = GI50 up to about 1.1 µM and inactive = higher.

Tests used:
Experiment in all cases: growth of human tumour cells (NCI), 48 h
786-0 = system: 786-0
A498 = system: A498
A549 = system: A549
ACHN = system: ACHN
CAKI-1 = system: CAKI-1
CCRF-CEM = system: CCRF-CEM
COLO 205 = system: COLO 205
DLD-1 = system: DLD-1
DMS-114 = system: DMS-114
EKVX = system: EKVX
HCC 2998 = system: HCC 2998
HCT-116 = system: HCT-116
HCT-15 = system: HCT-15
HL-60 = system: HL-60
HOP-18 = system: HOP-18
HOP-62 = system: HOP-62
HOP-92 = system: HOP-92
HT-29 = system: HT-29
IGROV-1 = system: IGROV-1
K562 = system: K562
KM-20L2 = system: KM-20L2
KM12 = system: KM12
LOX IMVI = system: LOX IMVI
LXFL 529 = system: LXFL 529
M14 = system: M14
M19-MEL = system: M19-MEL
MOLT-4 = system: MOLT-4
Malme-3M = system: Malme-3M
NCI-H226 = system: NCI-H226
NCI-H23 = system: NCI-H23
NCI-H460 = system: NCI-H460
NCI-H522 = system: NCI-H522
OVCAR-3 = system: OVCAR-3
OVCAR-5 = system: OVCAR-5
OVCAR-8 = system: OVCAR-8
RPMI-8226 = system: RPMI-8226
RXF 393 = system: RXF 393
RXF 631 = system: RXF 631
SF-268 = system: SF-268
SF-295 = system: SF-295
SF-539 = system: SF-539
SK-MEL-28 = system: SK-MEL-28
SK-MEL-2 = system: SK-MEL-2
SK-MEL-5 = system: SK-MEL-5
SK-OV-3 = system: SK-OV-3
SN12C = system: SN12C
SNB-19 = system: SNB-19
SNB-75 = system: SNB-75
SNB-78 = system: SNB-78
SR = system: SR
TK-10 = system: TK-10
U-251 = system: U-251
UACC-257 = system: UACC-257
UACC-62 = system: UACC-62
UO-31 = system: UO-31
OVCAR-4 = system: OVCAR-4
SW-620 = system: SW-620
XF498 = system: XF498

In the case of `CC1(C)C=N[N+]2(C)C3C=CC(CC3)C12` (stereo not given), the GI50 (786-0) is reported as > 100 µM (inactive), the GI50 (A498) is reported as > 100 µM (inactive) and the GI50 (A549) is reported as > 100 µM (inactive). The GI50 (ACHN) was > 100 µM (inactive), the GI50 (CAKI-1) was > 100 µM (inactive) and the GI50 (CCRF-CEM) was > 100 µM (inactive). For the same compound, the GI50 (COLO 205) was > 100 µM (inactive), the GI50 (DLD-1) was > 100 µM (inactive) and the GI50 (DMS-114) was > 100 µM (inactive). The GI50 (EKVX) was > 100 µM (inactive), the GI50 (HCC 2998) was > 100 µM (inactive) and the GI50 (HCT-116) was > 100 µM (inactive). The GI50 (HCT-15) was over 100 µM, the GI50 (HL-60) was > 100 µM (inactive) and the GI50 (HOP-18) was > 100 µM (inactive). The GI50 (HOP-62) was > 100 µM (inactive), the GI50 (HOP-92) was > 100 µM (inactive) and the GI50 (HT-29) was > 100 µM (inactive). For the same compound, the GI50 (IGROV-1) was > 100 µM (inactive), the GI50 (K562) was > 100 µM (inactive) and the GI50 (KM-20L2) was > 100 µM (inactive). For the same compound, the GI50 (KM12) was > 100 µM (inactive), the GI50 (LOX IMVI) was > 100 µM (inactive) and the GI50 (LXFL 529) was > 100 µM (inactive). The GI50 (M14) was > 100 µM (inactive), the GI50 (M19-MEL) was > 100 µM (inactive) and the GI50 (MOLT-4) was > 100 µM (inactive). For the same compound, the GI50 (Malme-3M) was > 100 µM (inactive), the GI50 (NCI-H226) was > 100 µM (inactive) and the GI50 (NCI-H23) was > 100 µM (inactive). For the same compound, the GI50 (NCI-H460) was > 100 µM (inactive), the GI50 (NCI-H522) was > 100 µM (inactive) and the GI50 (OVCAR-3) was > 100 µM (inactive). The GI50 (OVCAR-5) was > 100 µM (inactive), the GI50 (OVCAR-8) was > 100 µM (inactive) and the GI50 (RPMI-8226) was > 100 µM (inactive). For the same compound, the GI50 (RXF 393) was > 100 µM (inactive), the GI50 (RXF 631) was > 100 µM (inactive) and the GI50 (SF-268) was > 100 µM (inactive). The GI50 (SF-295) was > 100 µM (inactive), the GI50 (SF-539) was > 100 µM (inactive) and the GI50 (SK-MEL-28) was > 100 µM (inactive). The GI50 (SK-MEL-2) was > 100 µM (inactive), the GI50 (SK-MEL-5) was > 100 µM (inactive) and the GI50 (SK-OV-3) was > 100 µM (inactive). The GI50 (SN12C) was > 100 µM (inactive), the GI50 (SNB-19) was > 100 µM (inactive) and the GI50 (SNB-75) was > 100 µM (inactive). For the same compound, the GI50 (SNB-78) was > 100 µM (inactive), the GI50 (SR) was > 100 µM (inactive) and the GI50 (TK-10) was > 100 µM (inactive). The GI50 (U-251) was > 100 µM (inactive), the GI50 (UACC-257) was > 100 µM (inactive) and the GI50 (UACC-62) was > 100 µM (inactive). The GI50 (UO-31) was > 100 µM (inactive).
With `O=c1[nH]c(=O)n(C2CC(O)C(O)C(CO)O2)cc1F` (stereo not given) the GI50 (786-0) was > 100 µM (inactive), the GI50 (A498) was > 100 µM (inactive) and the GI50 (A549) was > 100 µM (inactive). For the same compound, the GI50 (ACHN) was > 100 µM (inactive), the GI50 (CCRF-CEM) was > 100 µM (inactive) and the GI50 (COLO 205) was > 100 µM (inactive). The GI50 (DLD-1) was > 100 µM (inactive), the GI50 (DMS-114) was > 100 µM (inactive) and the GI50 (EKVX) was > 100 µM (inactive). The GI50 (HCC 2998) was > 100 µM (inactive), the GI50 (HCT-116) was > 100 µM (inactive) and the GI50 (HCT-15) was over 100 µM. For the same compound, the GI50 (HL-60) was > 100 µM (inactive), the GI50 (HOP-18) was > 100 µM (inactive) and the GI50 (HOP-62) was > 100 µM (inactive). The GI50 (HOP-92) was > 100 µM (inactive), the GI50 (HT-29) was > 100 µM (inactive) and the GI50 (IGROV-1) was > 100 µM (inactive). The GI50 (K562) was > 100 µM (inactive), the GI50 (KM-20L2) was > 100 µM (inactive) and the GI50 (KM12) was > 100 µM (inactive). The GI50 (LOX IMVI) was > 100 µM (inactive), the GI50 (LXFL 529) was > 100 µM (inactive) and the GI50 (M14) was > 100 µM (inactive). The GI50 (M19-MEL) was > 100 µM (inactive), the GI50 (MOLT-4) was > 100 µM (inactive) and the GI50 (Malme-3M) was > 100 µM (inactive). For the same compound, the GI50 (NCI-H226) was > 100 µM (inactive), the GI50 (NCI-H23) was > 100 µM (inactive) and the GI50 (NCI-H460) was > 100 µM (inactive). The GI50 (NCI-H522) was > 100 µM (inactive), the GI50 (OVCAR-3) was > 100 µM (inactive) and the GI50 (OVCAR-4) was > 100 µM (inactive). For the same compound, the GI50 (OVCAR-5) was > 100 µM (inactive), the GI50 (OVCAR-8) was > 100 µM (inactive) and the GI50 (RPMI-8226) was > 100 µM (inactive). The GI50 (RXF 393) was > 100 µM (inactive), the GI50 (RXF 631) was > 100 µM (inactive) and the GI50 (SF-268) was > 100 µM (inactive). For the same compound, the GI50 (SF-295) was > 100 µM (inactive), the GI50 (SF-539) was > 100 µM (inactive) and the GI50 (SK-MEL-28) was > 100 µM (inactive). For the same compound, the GI50 (SK-MEL-2) was > 100 µM (inactive), the GI50 (SK-OV-3) was > 100 µM (inactive) and the GI50 (SN12C) was > 100 µM (inactive). The GI50 (SNB-19) was > 100 µM (inactive), the GI50 (SNB-75) was > 100 µM (inactive) and the GI50 (SNB-78) was > 100 µM (inactive). For the same compound, the GI50 (SW-620) was > 100 µM (inactive), the GI50 (TK-10) was > 100 µM (inactive) and the GI50 (U-251) was > 100 µM (inactive). The GI50 (UACC-257) was > 100 µM (inactive), the GI50 (UACC-62) was > 100 µM (inactive) and the GI50 (UO-31) was > 100 µM (inactive). For the same compound, the GI50 (XF498) was > 100 µM (inactive).
